Data as given in patent USRE38506E1, “Potent inducers of terminal differentiation and methods of use thereof” (Sloan-Kettering Institute for Cancer Research, priority 1991, dated 2004).

How the values were obtained:
MELC 745A-DS19 cells [1] = conditions: without continuing drug exposure; cited from earlier work
[2] = system: HL-60 human leukemia cells; assay: Induction of Differentiation of HL-60 (NBT reduction); type: cell-based; conditions: for Optimal Conc.: HL-60, Table 2; for NBT Positive: HL-60, at optimal concentration
Method: (§1) Commitment to terminal differentiation, characterized by limited cell division (colony size<32 cells) and accumulation of hemoglobin (benzidine reactive colonies) was assayed by a colony cloning assay using 2% methylcellulose as described (25) (see Table 1 for results). HL-60 human leukemia cells, derived from peripheral blood leukocytes of a patient with acute promyelocytic leukemia (40). Induced differentiation of HL-60 cells assayed by determining the proportion of cells that developed the capacity to reduce nitroblue tetrazolium (NBT) (41) (see Table 2 for results).

MELC 745A-DS19 cells [3] = assay: Induction of terminal differentiation of murine erythroleukemia cells (benzidine reactivity); type: cell-based; conditions: for Optimal Conc.: Table 1; for Benzidine Reactive Cells: at optimal concentration
Method: MELC 745A-DS19 cells and the variants of MELC derived from this cell line, namely, the vincristine-resistant MELC V3.17 and VCR.C(2)15 cell lines (26), and the dimethylsulfoxide-resistant cell line, DR10 (39), were maintained in alpha minimal essential medium containing 10% fetal calf serum (16). Cell cultures for all experiments were initiated with cells in logarithmic growth phase (day 2 cultured cells) at a density of 10^5 cells/ml. Inducer compounds were added in the final concentrations indicated below, dissolved in culture medium without fetal calf serum unless otherwise indicated. Cell density and benzidine reactively were determined as described (16).
as §1

Row | Structure (SMILES) | minimum duration of continuous exposure required to induce differentiation in a substantial portion (>20%) of the population (MELC 745A-DS19 cells [1]) | Optimal Conc. [2] [µM] | NBT Positive [2] [%] | Optimal Conc. (MELC 745A-DS19 cells [3]) [µM] | Benzidine Reactive Cells (MELC 745A-DS19 cells [3]) [%]
1 | CC(=O)NCCCCCCNC(C)=O [HMBA, N,N′-hexamethylene bisacetamide] | about 36 hours | – | – | – | –
2 | O=C(CCCCCC(=O)Nc1ccccc1)NO [compound 2] | – | 7 | 22 | 20 | 84
3 | O=C(CCCCCCC(=O)Nc1ccccc1)NO [compound 3] | – | 1 | 21 | – | 70
4 | N#Cc1cccc(NC(=O)CCCCCCC(=O)O)c1 [compound 6] | – | 20 | 30 | – | 44
5 | N#Cc1ccc(NC(=O)CCCCCCC(=O)O)cc1 [compound 7] | – | 20 | 21 | – | 52
6 | N#Cc1ccc(NC(=O)CCCCCCC(=O)NO)cc1 [compound 21] | – | 2 | 6 | 7 | 70
7 | N#Cc1cccc(NC(=O)CCCCCCC(=O)NO)c1 [compound 22] | – | 1.7 | 28 | 5 | 55
8 | O=C(CCCCCCC(=O)Nc1ccc([N+](=O)[O-])cc1)NO [compound 25] | – | 3 | 18 | 0.8 | 30
9 | O=C(CCCCCCC(=O)Nc1cccc(C(F)(F)F)c1)NO [compound 26] | – | 6 | 27 | 30 | 30
10 | N#CCc1ccc(NC(=O)CCCCCCC(=O)NO)cc1 [compound 29] | – | 1 | 15 | 1 | 30
11 | [N-]=[N+]=Nc1ccc(NC(=O)CCCCCCC(=O)NO)cc1 [compound 31] | – | 2.5 | 7 | 2 | 47
12 | COC(=O)c1ccc(NC(=O)CCCCCCC(=O)NO)cc1 [compound 36] | – | 1 | 32 | 4 | 28
13 | O=C(CCCCCCC(=O)Nc1c(F)ccc(F)c1F)NO [compound 43] | – | 2 | 20 | 31 | 53
